Measured values published in patent US4959363A, “Quinolonecarboxamide compounds, their preparation and use as antivirals” (Sterling Drug Inc., priority 1989, dated 1990).

How the values were obtained:
[1] = design: species or system albino mice; details: mouse
[2] = In vitro maximum tolerated dose (MTL), Vero cells; format: cell-based, African Green Monkey; details: monkey, In Vitro

Structure (SMILES) | In Vivo MTL (Maximum tolerated dose) [1] | MNTC at 72 h ([2]; vero cells) [µg/mL] | MNTC at 72 h ([2]; Vero cells) [µg/mL]
CCn1c(N)c(C(N)=O)c(=O)c2ccc(-c3ccncc3)cc21 [Example 40b, 2-Amino-1,4-dihydro-1-ethyl-4-oxo-7-(4-pyridinyl)-3quinolinecarboxamide] | > 100 | > 12.5 | –
O=C(NCN1CCCCC1)c1cn(-c2ccc(F)cc2)c2cc(-c3ccncc3)ccc2c1=O [Example 5, N-(1-Piperidinylmethyl)-1-(4-fluorophenyl)-1,4-dihydro-4-oxo-7-(4-pyridinyl)-3-quinolinecarboxamide] | – | > 12.5 | –
CCn1cc(C(=O)NN)c(=O)c2ccc(-c3ccccc3)cc21 [Example 36, 1-Ethyl-1,4-dihydro-4-oxo-7-phenyl-3-quinolinecarboxylic acid hydrazide] | > 200 | 25 | –
CCn1cc(C(N)=O)c(=O)c2ccc(-c3cccnc3)cc21 [Example 27b, 1-Ethyl-1,4-dihydro-4-oxo-7-(3-pyridinyl)-3-quinolinecarboxamide] | 100 | 50 | –
CCn1cc(C(N)=O)c(=O)c2cc(F)c(-c3ccncc3)cc21 [Example 25, 1-Ethyl-6-fluoro-1,4-dihydro-4-oxo-7-(4-pyridinyl)-3quinolinecarboxamide] | – | > 100 | –
C=CCn1cc(C(N)=O)c(=O)c2ccc(-c3ccncc3)cc21 [Example 19, 1,4-Dihydro-4-oxo-1-(2-propenyl)-7-(4-pyridinyl)-3-quinolinecarboxamide] | < 50 | 6.25 | –
Cc1ccc(-n2cc(C(N)=O)c(=O)c3ccc(-c4ccncc4)cc32)cc1 [Example 33, 1,4-Dihydro-1-(4-methylphenyl)-7-(4-pyridinyl)-4-oxo-3quinolinecarboxamide] | 50 | > 25 | –
CCCCCn1cc(C(N)=O)c(=O)c2ccc(-c3ccncc3)cc21 [Example 26, 1,4-Dihydro-4-oxo-1-pentyl-7-(4-pyridinyl)-3-quinolinecarboxamide] | – | – | 6.2
CC(C)(C)c1ccc(-n2cc(C(N)=O)c(=O)c3ccc(-c4ccncc4)cc32)cc1 [Example 9, 1-[4-(1,1-Dimethylethyl)phenyl]-1,4-dihydro-4-oxo-7-(4-pyridinyl)-3-quinolinecarboxamide] | – | > 25 | –
NC(=O)c1cn(C2CC2)c2cc(-c3ccncc3)ccc2c1=O [Example 11, 1-Cyclopropyl-1,4-dihydro-4-oxo-7-(4-pyridinyl)-3-quinolinecarboxamide] | 25 | 25 | –
NC(=O)c1cn(-c2ccccc2F)c2cc(-c3ccncc3)ccc2c1=O [Example 34, 1,4-Dihydro-1-(2-fluorophenyl)-7-(4-pyridinyl)-4-oxo-3quinolinecarboxamide] | 100 | 1.6 | –
O=C(NCN1CCOCC1)c1cn(-c2ccc(F)cc2)c2cc(-c3ccncc3)ccc2c1=O [Example 4, N-(4-Morpholinylmethyl)-1-(4-fluorophenyl)-1,4-dihydro-4-oxo-7-(4-pyridinyl)-3-quinolinecarboxamide] | – | > 12.5 | –
NC(=O)c1c(O)n(-c2ccc(F)cc2)c2cc(-c3ccncc3)ccc2c1=O [Example 47e, 1,4-Dihydro-1-(4-fluorophenyl)-2-hydroxy-7-(4-pyridinyl)4-oxo-3-quinolinecarboxamide] | – | > 100 | –
CCCn1cc(C(N)=O)c(=O)c2ccc(-c3ccncc3)cc21 [Example 18, 1,4-Dihydro-4-oxo-1-propyl-7-(4-pyridinyl)-3-quinolinecarboxamide] | – | 6.25 | –
NC(=O)c1cn(-c2ccccc2)c2cc(-c3ccncc3)ccc2c1=O [Example 21, 1,4-Dihydro-4-oxo-1-phenyl-7-(4-pyridinyl)-3-quinolinecarboxamide] | – | 6.25 | –
Cc1ccc(-n2cc(C(N)=O)c(=O)c3ccc(-c4ccncc4)cc32)cc1C [Example 13, 1,4-Dihydro-1-(3,4-dimethylphenyl)-4-oxo-7-(4-pyridinyl)-3-quinolinecarboxamide] | – | > 100 | –
